According to patent US20220226341A1, “Pharmaceutical Composition for Alzheimer's Disease” (Kyoto University, priority 2019, published 2022):
pIC50: −log10 of the molar value.

Key:
[1] = Tissue distribution of radioactivity after single intravenous administration of 14C-labeled Compound 1 (blood-brain barrier penetration); format: in vivo; details: rats, single iv 5 mg/kg 14C-labeled; for Radioactivity concentration: n = 3
Experimental: [Testing the Penetration of the Compound Through the Blood-Brain Barrier]
Brain permeability (intracerebral transferability) of Compound 1 was evaluated.
^14C-labeled Compound 1 was intravenously administered once in a dose of 5 mg/kg (3.52 MBq/kg) to rats, and histological distribution (biodistribution) thereof was studied.

[2] = system: Human Herpesvirus Type 7 (HHV-7); assay: Antiviral test against HHV-7 in Sup-T1 cells, TaqMan PCR; format: cell-based
Experimental: [Antiviral Test Against HHV-7]
An antiviral test against HHV-7 using Compound 1 was performed by the following procedure.
Virus strain: Human Herpesvirus Type 7 (HHV-7)
(§1) Medium: RPMI-1640+10% FBS+1% penicillin/streptomycin
(§2) Detection method: TaqMan PCR
Sup-T1 cells were cultured at a concentration of 1×10^6/ml, Compound 1, 10 μM, was added, and one hour after, HHV-7 virus (1×10^4 infectious units) were sensitized (or unsensitized cells were prepared as a negative control).
After culturing at 37° C. for two hours, the medium was replaced, and Compound 1 was added again. Five days after, 500 μl of the medium was sampled, and HHV-7 virus was quantified by TaqMan PCR. Statistical analysis was performed by Student's t-test.

CDK9/CycT1 = CDK9/CycT1 (Homo sapiens, UniProt P50750); assay: CDK9 inhibitory activity, Off-chip Mobility Shift Assay (MSA); format: biochemical; details: room temperature, one hour, read-out: IC50 value with respect to CDK9/CycT1
Experimental: [Assay of CDK9 Inhibitory Activity]
The tests for confirming CDK9 inhibitory activity were carried out by the following procedure according to Off-chip Mobility Shift Assay (MSA).
A substrate/ATP/metal solution (4×) was prepared with use of a kit buffer (20 mM HEPES, 0.01% Triton X-100, 5 mM DTT, pH7.5). A kinase solution (2×) was prepared with use of an assay buffer.
2) The test substance solutions, the substrate/ATP/metal solution, and the kinase solution were mixed in wells of a polypropylene plate, and were caused to react at room temperature for one hour.
3) A termination buffer (QuickScout Screening Assist MSA; Cama Biosciences Inc.)
was added thereto to stop the reaction.
4) Substrate peptides and phosphorylated peptides in the reaction solutions were separated and quantified in LabChip™ System (PerkinElmer Co., Ltd.).
5) Kinase reaction activities were evaluated based on a product ratio (P/(P+S)) calculated from a peak height of the substrate peptide (S) and a peak height of the phosphorylated peptide (P).

[3] = system: Human Herpesvirus Type 6A (HHV-6A); assay: Antiviral test against HHV-6A in Sup-T1 cells, TaqMan PCR; format: cell-based
Experimental: [Antiviral Test Against HHV-6A]
An antiviral test against HHV-6A using Compound 1 was performed by the following procedure.
Virus strain: Human Herpesvirus Type 6A (HHV-6A)
as §1, §2
Sup-T1 cells were cultured at a concentration of 1×10^6/ml, Compound 1, 3 μM, was added, and one hour after, HHV-6A virus (1×10^4 infectious units) were sensitized (or unsensitized cells were prepared as a negative control).
After culturing at 37° C. for two hours, the medium was replaced, and Compound 1 was added again. Three days after, 500 μl of the medium was sampled, and HHV-6A virus was quantified by TaqMan PCR. Statistical analysis was performed by Student's t-test.

Chain of CDK9/CycT1 (P50750 whole entry): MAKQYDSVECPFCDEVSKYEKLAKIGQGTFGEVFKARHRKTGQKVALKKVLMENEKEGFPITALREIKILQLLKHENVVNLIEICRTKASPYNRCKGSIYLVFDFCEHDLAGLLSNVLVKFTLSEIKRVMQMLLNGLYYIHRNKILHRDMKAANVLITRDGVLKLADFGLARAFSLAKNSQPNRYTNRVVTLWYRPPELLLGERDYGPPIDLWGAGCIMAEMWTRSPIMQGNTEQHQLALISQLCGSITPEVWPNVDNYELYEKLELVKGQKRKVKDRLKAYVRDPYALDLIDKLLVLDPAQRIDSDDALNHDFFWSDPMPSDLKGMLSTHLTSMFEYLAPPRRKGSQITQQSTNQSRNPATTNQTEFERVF
Chain of CDK9/CycT1 (O60563 whole entry partner): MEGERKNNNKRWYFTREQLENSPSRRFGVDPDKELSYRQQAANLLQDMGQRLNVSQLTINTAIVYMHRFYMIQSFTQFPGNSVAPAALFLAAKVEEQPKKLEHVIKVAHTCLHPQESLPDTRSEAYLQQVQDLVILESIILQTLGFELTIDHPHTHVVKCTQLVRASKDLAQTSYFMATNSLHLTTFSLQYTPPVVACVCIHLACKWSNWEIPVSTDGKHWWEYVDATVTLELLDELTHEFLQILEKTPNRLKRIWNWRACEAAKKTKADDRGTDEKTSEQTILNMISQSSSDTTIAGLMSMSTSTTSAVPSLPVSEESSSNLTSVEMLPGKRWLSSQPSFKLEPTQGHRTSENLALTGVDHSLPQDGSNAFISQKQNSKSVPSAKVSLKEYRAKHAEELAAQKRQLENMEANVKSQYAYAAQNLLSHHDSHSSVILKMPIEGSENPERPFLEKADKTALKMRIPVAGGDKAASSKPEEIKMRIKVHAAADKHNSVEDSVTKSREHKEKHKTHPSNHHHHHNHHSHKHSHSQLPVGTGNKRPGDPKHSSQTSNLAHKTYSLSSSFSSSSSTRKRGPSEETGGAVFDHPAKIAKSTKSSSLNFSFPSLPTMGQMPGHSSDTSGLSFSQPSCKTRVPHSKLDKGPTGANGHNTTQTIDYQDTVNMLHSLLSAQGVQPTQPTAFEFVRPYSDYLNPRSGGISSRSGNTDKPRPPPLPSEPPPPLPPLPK

Fc1ccc(N2CCCCC2)c(NC(=S)c2ccncc2)c1 [Compound 1]
Radioactivity concentration ([1]; Mandibular gland, 24 h): 115.51 ng eq. of Compound 1/g or mL | Radioactivity concentration ([1]; Mandibular gland, 72 h): 8.87 ng eq. of Compound 1/g or mL | Radioactivity concentration ([1]; Mandibular lymph node, 5 min): 5693.66 ng eq. of Compound 1/g or mL | Radioactivity concentration ([1]; Mandibular lymph node, 6 h): 1018.12 ng eq. of Compound 1/g or mL | Radioactivity concentration ([1]; Mandibular lymph node, 24 h): 108.82 ng eq. of Compound 1/g or mL | Radioactivity concentration ([1]; Mandibular lymph node, 72 h): 8.13 ng eq. of Compound 1/g or mL | Radioactivity concentration ([1]; Pancreas, 5 min): 14356.66 ng eq. of Compound 1/g or mL | Radioactivity concentration ([1]; Pancreas, 6 h): 1206.84 ng eq. of Compound 1/g or mL | Radioactivity concentration ([1]; Pancreas, 24 h): 105.62 ng eq. of Compound 1/g or mL | Radioactivity concentration ([1]; Pancreas, 72 h): 7.37 ng eq. of Compound 1/g or mL | Radioactivity concentration ([1]; Prostate gland, 5 min): 5072.42 ng eq. of Compound 1/g or mL | Radioactivity concentration ([1]; Prostate gland, 6 h): 1268.5 ng eq. of Compound 1/g or mL | Radioactivity concentration ([1]; Prostate gland, 24 h): 114.45 ng eq. of Compound 1/g or mL | Radioactivity concentration ([1]; Prostate gland, 72 h): 7.62 ng eq. of Compound 1/g or mL | Radioactivity concentration ([1]; Skeletal muscle, 5 min): 2479.87 ng eq. of Compound 1/g or mL | Radioactivity concentration ([1]; Skeletal muscle, 6 h): 838.23 ng eq. of Compound 1/g or mL | Radioactivity concentration ([1]; Skeletal muscle, 24 h): 97.94 ng eq. of Compound 1/g or mL | Radioactivity concentration ([1]; Skeletal muscle, 72 h): 10.11 ng eq. of Compound 1/g or mL | Radioactivity concentration ([1]; Skin, 5 min): 3889.26 ng eq. of Compound 1/g or mL | Radioactivity concentration ([1]; Skin, 6 h): 2084.85 ng eq. of Compound 1/g or mL | Radioactivity concentration ([1]; Skin, 24 h): 150.1 ng eq. of Compound 1/g or mL | Radioactivity concentration ([1]; Skin, 72 h): 23.26 ng eq. of Compound 1/g or mL | Radioactivity concentration ([1]; Skin, 168 h): 6.57 ng eq. of Compound 1/g or mL | Radioactivity concentration ([1]; Small intestine, 5 min): 6555.86 ng eq. of Compound 1/g or mL | Radioactivity concentration ([1]; Small intestine, 6 h): 1979.83 ng eq. of Compound 1/g or mL | Radioactivity concentration ([1]; Small intestine, 24 h): 156.71 ng eq. of Compound 1/g or mL | Radioactivity concentration ([1]; Small intestine, 72 h): 9.85 ng eq. of Compound 1/g or mL | Radioactivity concentration ([1]; Spleen, 5 min): 6622.6 ng eq. of Compound 1/g or mL | Radioactivity concentration ([1]; Spleen, 6 h): 944.65 ng eq. of Compound 1/g or mL | Radioactivity concentration ([1]; Spleen, 24 h): 113.01 ng eq. of Compound 1/g or mL | Radioactivity concentration ([1]; Spleen, 72 h): 9.68 ng eq. of Compound 1/g or mL | Radioactivity concentration ([1]; Stomach, 5 min): 8261.97 ng eq. of Compound 1/g or mL | Radioactivity concentration ([1]; Stomach, 6 h): 2309.97 ng eq. of Compound 1/g or mL | Radioactivity concentration ([1]; Stomach, 24 h): 227.12 ng eq. of Compound 1/g or mL | Radioactivity concentration ([1]; Testis, 5 min): 2762.22 ng eq. of Compound 1/g or mL | Radioactivity concentration ([1]; Testis, 6 h): 1217.12 ng eq. of Compound 1/g or mL | Radioactivity concentration ([1]; Testis, 24 h): 128.05 ng eq. of Compound 1/g or mL | Radioactivity concentration ([1]; Testis, 72 h): 8.72 ng eq. of Compound 1/g or mL | Radioactivity concentration ([1]; Thymus, 5 min): 5034.15 ng eq. of Compound 1/g or mL | Radioactivity concentration ([1]; Thymus, 6 h): 954.13 ng eq. of Compound 1/g or mL | Radioactivity concentration ([1]; Thymus, 24 h): 97.42 ng eq. of Compound 1/g or mL | Radioactivity concentration ([1]; Thymus, 72 h): 5.22 ng eq. of Compound 1/g or mL | Radioactivity concentration ([1]; Thyroid gland, 5 min): 9550.71 ng eq. of Compound 1/g or mL | Radioactivity concentration ([1]; Thyroid gland, 6 h): 2369.71 ng eq. of Compound 1/g or mL | Radioactivity concentration ([1]; Thyroid gland, 24 h): 793.99 ng eq. of Compound 1/g or mL | Radioactivity concentration ([1]; Thyroid gland, 72 h): 298.2 ng eq. of Compound 1/g or mL | Radioactivity concentration ([1]; Thyroid gland, 168 h): 125.76 ng eq. of Compound 1/g or mL | Brain permeability (intracerebral transferability) ([1]; cerebellum, cerebrum, pituitary gland higher than plasma at 5 minutes): capable of penetrating the brain | Effect of suppressing growth of HHV-7 ([2]; 10 μM, in words): effect of suppressing growth of HHV-7 was confirmed | HHV-7 copy number ([2]; Compound 1 10 μM, medium sampled five days after, TaqMan PCR): 1844.89 | pIC50 (CDK9/CycT1): 5.24 | Effect of suppressing growth of HHV-6A ([3]; 3 μM, in words): effect of suppressing growth of HHV-6A in the Compound 1-treated group was confirmed | HHV-6A copy number ([3]; Compound 1 3 μM, medium sampled three days after, TaqMan PCR): 6767.59
